Measured values as given in patent US12577232B2, “N-heterocycle substituted tryptamine derivatives and methods of using” (ENVERIC B[…] INC., priority 2024, dated 2026).

Columns and labels:
5-HT2A receptor [1] = target: T1, 5-HT2A receptor (Homo sapiens, UniProt P28223); test: Functional cell-based 5-HT2A assay, antagonism mode (CHO-K1/5-HT2A, 100 nM serotonin, calcium flux); conditions: CHO-K1/5-HT2A cells, with 100 nM serotonin
T1 construct: purchased PerkinElmer ES-313-M400UA
Excerpt: A variety of 5-HT2A receptor engagement modes have been correlated with positive outcomes in the treatment of neurological disorders. While agonism is associated with a host of favourable effects, antagonizing the 5-HT2A receptor is also an attractive pharmacological approach. For example, antagonism is known to alleviate both dyskinesisa and psychosis in Parkinson's Disorder and holds promise for other psychiatric diseases (Mestre et al., 2013, Expert Opin. Investig. Drugs 22:411-421). Similarly positive outcomes are noted for inverse agonists (Cummings et al., 2014, Lancet, 383:533-540; Roberts, 2006, Curr. Opin. Invest. Drugs 7:653-660). […]
Stimulation of 5-HT2A coupled to the Gq family proteins leads to activation of the phospholipase C (PLC) pathway, ultimately resulting in the accumulation of cytosolic calcium (Cussac et al., Europ. J. Pharmacol., 2008, 594 (1-3), 32-38). […] Kinetic increases in intracellular calcium levels were measured immediately after addition of ligands every 6.4 s for a total of 3 min using the FlexStation 3 multimode microplate reader and SoftMax Pro 7.1 analysis software (Molecular Devices, moleculardevices.com). […] IC50 values were calculated from the normalized data from GraphPad PRISM software. […]

[2] = system: stressed C57BL/6-Elite mice; test: Mouse marble burying (MB) assay to assess anxiolytic potential; format: in vivo; conditions: i.p., psilocin 3 mg/kg, compound (XV) 10 mg/kg; vs Vehicle+Stress
Description: Marble burying behavior is used to measure the level of anxiety in a rodent when it encounters unfamiliar objects (Deacon, 2006, Nature Protocols 1:122-124). This assay is routinely applied to the study of chronically stressed mice, where drug candidates are evaluated for an ability to diminish stress-induced, anxiety-like behaviours (e.g., Wang et al., ACS Chem. Neurosci. 14:977-987). Positive results in this assay may be interpreted as an indication of therapeutic (anxiolytic) potential in the treatment of various psychiatric disorders. Herein, we applied the marble burying model to investigate whether selected drugs could alleviate anxiety behaviour in stressed mice.
All animal protocols were approved by the University of Calgary Animal Care and Use Committee. C57BL/6-Elite mixed sex mice were obtained from Charles River Laboratories (Toronto, Canada) at 8-9 weeks old. […]
On the testing days, 10 glass marbles (approx. 15 mm in diameter) were evenly spaced on 5 cm of wood-chip bedding (lightly tamped down to make a flat and even surface). […] The number of marbles buried to ⅔rds their depth was measured. Fully buried marbles were counted as 1 and partially (at least ⅔rds) buried marbles were counted as 0.5. […]

[3] = system: stressed C57BL/6-Elite mice; test: Mouse sucrose preference (SP) assay to assess antidepressant potential; format: in vivo; conditions: i.p., psilocin 3 mg/kg, compound (XV) 10 mg/kg; one day after administration
Description: Reduced intake of pleasurable substances, e.g., of sucrose water, is a validated behavioral measure of anhedonic/depressive-like state in rodents (Moreau et al., 1992, Eur. Neurpsychopharmocol. 2:43-49; Liu et al., 2018, Nature Protocols 13:1686-1698). […] In the SP assay, cohorts of mice are pre-stressed, leading to a depressed state. The ability of drugs to rescue this state are evaluated.
All animal protocols were approved by the University of Calgary Animal Care and Use Committee. C57BL/6-Elite mixed sex mice were obtained from Charles River Laboratories (Toronto, Canada) at 8-9 weeks old. Mice were maintained on a 12:12 h light/dark schedule (lights on at 07:00 hours) with ad libitum access to food and water and group-housed until 2 days prior to the start of the mild chronic stress paradigm, then mice were single-housed. […]
Mice were introduced to 1% sucrose solution in their drinking water for 24 hrs for 2 days prior to initial sucrose preference testing to reduce impact of novelty. […] The consumption in water, sucrose solution, and total intake of liquids was measured by weighing each bottle before and after the 24-hr experiment. The preference for sucrose was calculated as a percentage of the consumed sucrose solution from the total intake of both water and sucrose solutions. […]

[4] = after intravenous (and oral) psilocybin administration (Raithatha et al., 2023); cited from earlier work
5-HT2A receptor [5] = target: T1, 5-HT2A receptor; test: Functional cell-based 5-HT2A assay, agonism mode (CHO-K1/5-HT2A, Fluo-8 calcium flux); conditions: CHO-K1/5-HT2A cells
Description: Herein, functional, cell-based assays were conducted to determine (1) agonist potency and efficacy of drugs at the 5-HT2A receptor (agonist mode), and (2) antagonist potency at the 5-HT2A receptor (antagonist mode).
All cells were grown and maintained as a monolayer in Ham's F12 nutrient mix supplemented with 10% fetal bovine serum (FBS) and 400 μg/mL geneticin (G418) all from ThermoFisher Scientific and used according to the manufacturer's instructions. Cells were cultured and incubated at 37° C. in a humidified oxygen atmosphere with 5% CO2. To evaluate the activation of 5-HT2A signal transduction, cells were first seeded in tissue culture-treated, black-walled, clear-bottom 96-well plates (Thermo Scientific) at a density of 40,000 cells/well in 100 pl Ham's F12 nutrient mix supplemented with 2% FBS. Cells were cultured for 24 h in a humidified incubator at 37° C. and 5% CO2. Cells were then loaded with Fluo-8 calcium indicator dye for 1 h at 37° C. and an additional 30 min at room temperature as per the manufacturer's protocol. […] Kinetic increases in intracellular calcium levels were measured immediately after addition of test compounds every 6.4 s for a total of 3 min using the FlexStation 3 multimode microplate reader and SoftMax Pro 7.1 analysis software (Molecular Devices, moleculardevices.com). […] EC50 values were calculated from the normalized data from GraphPad PRISM software.

T1 sequence (P28223 whole entry): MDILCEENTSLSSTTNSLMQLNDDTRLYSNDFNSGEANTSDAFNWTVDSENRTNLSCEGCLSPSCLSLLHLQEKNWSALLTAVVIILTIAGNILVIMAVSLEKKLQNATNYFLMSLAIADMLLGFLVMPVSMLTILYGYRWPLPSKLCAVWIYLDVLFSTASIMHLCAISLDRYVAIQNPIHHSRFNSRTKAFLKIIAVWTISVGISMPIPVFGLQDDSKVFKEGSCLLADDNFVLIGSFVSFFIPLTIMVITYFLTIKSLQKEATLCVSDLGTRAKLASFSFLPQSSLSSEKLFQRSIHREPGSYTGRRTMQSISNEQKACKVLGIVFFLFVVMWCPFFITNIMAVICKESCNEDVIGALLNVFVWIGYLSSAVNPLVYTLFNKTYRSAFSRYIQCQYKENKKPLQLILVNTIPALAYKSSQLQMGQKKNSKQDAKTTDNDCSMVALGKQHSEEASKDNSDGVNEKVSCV

## CN(C)CCc1c[nH]c2cccc(O)c12 [psilocin, reference compound]
5-HT2A receptor [1]
  engagement at the 5-HT2A receptor, antagonist mode: antagonism
[2]
  anxiety-linked (marble burying) behavior in stressed mice: rescued
[3]
  sucrose preference behaviour in stressed mice vs no drug control: significantly elevated
[4]
  persistence in plasma: > 8 h
5-HT2A receptor [5]
  engagement at the 5-HT2A receptor, agonist mode: agonism
